Experimental data taken from PubChem BioAssay AID246 (DTP/NCI, 2004).
Values joined by “and” are separate entries in the source; they are usually repeats but may differ in a detail not shown here. Equal entries are not always repeated. Inconclusive results and toxic doses are left out. How the source made its calls: active means survival T/C of 150% or more; inactive means T/C below 125% in these data.

Tested on: BDF1 mice, P1081 chloroleukemia ip, survival T/C
Assay: NCI In Vivo Anticancer Drug Screen. Data for tumor model P1081 Chloroleukemia (intraperitoneal) in B6D2F1 (BDF1) mice
Details: endpoint: mean survival time, higher = longer survival
Method: The antitumor activity of compounds was measured in mice bearing transplantable tumors. Survival or tumor size were measured and the results are expressed as the measurement made in the treated group (T) divided by the measurement made in the vehicle treated control group (C). The tumor model used in this assay is P1081 Chloroleukemia (intraperitoneal) in B6D2F1 (BDF1) mice

[1] = dose: 5.0 mg/kg/injection, schedule: Q01DX010 (ip), vehicle: saline
[2] = dose: 6.25 mg/kg/injection, schedule: Q01DX Z (ip), vehicle: carboxymethylcellulose (CMC)
[3] = dose: 10.0 mg/kg/injection, schedule: Q01DX010 (ip), vehicle: saline
[4] = dose: 12.5 mg/kg/injection, schedule: Q01DX Z (ip), vehicle: carboxymethylcellulose (CMC)
[5] = dose: 20.0 mg/kg/injection, schedule: Q01DX010 (ip), vehicle: saline
[6] = dose: 25.0 mg/kg/injection, schedule: Q01DX Z (ip), vehicle: carboxymethylcellulose (CMC)
[7] = dose: 50.0 mg/kg/injection, schedule: Q01DX Z (ip), vehicle: carboxymethylcellulose (CMC)
[8] = dose: 100.0 mg/kg/injection, schedule: Q01DX Z (ip), vehicle: carboxymethylcellulose (CMC)
[9] = dose: 62.5 mg/kg/injection, schedule: Q01DX Z (ip), vehicle: carboxymethylcellulose (CMC)
[10] = dose: 125.0 mg/kg/injection, schedule: Q01DX Z (ip), vehicle: carboxymethylcellulose (CMC)
[11] = dose: 250.0 mg/kg/injection, schedule: Q01DX Z (ip), vehicle: carboxymethylcellulose (CMC)
[12] = dose: 500.0 mg/kg/injection, schedule: Q01DX Z (ip), vehicle: carboxymethylcellulose (CMC)
[13] = dose: 62.5 mg/kg/injection, schedule: Q01DX010 (ip), vehicle: saline
[14] = dose: 125.0 mg/kg/injection, schedule: Q01DX010 (ip), vehicle: saline
[15] = dose: 62.5 mg/kg/injection, schedule: Q01DX Z (sc), vehicle: steriod suspending solution
[16] = dose: 125.0 mg/kg/injection, schedule: Q01DX Z (sc), vehicle: steriod suspending solution
[17] = dose: 250.0 mg/kg/injection, schedule: Q01DX Z (sc), vehicle: steriod suspending solution
[18] = dose: 500.0 mg/kg/injection, schedule: Q01DX Z (sc), vehicle: steriod suspending solution
[19] = dose: 1000.0 mg/kg/injection, schedule: Q01DX Z (sc), vehicle: steriod suspending solution

Measured: T/C

O=C(Nc1ccc(C2=NCCCN2)cc1)c1ccc(C(=O)Nc2ccc(C3=NCCCN3)cc2)cc1
active: dose: 4.0 mg/kg/injection, schedule: Q01DX Z (ip), vehicle: water 162 % of control
inactive: dose: 0.5 mg/kg/injection, schedule: Q01DX Z (ip), vehicle: water 109 % of control and 101 % of control | dose: 1.0 mg/kg/injection, schedule: Q01DX Z (ip), vehicle: water 110 % of control and 118 % of control

CN(C)c1ccc(/C=C/c2ccnc3ccccc23)cc1
inactive: dose: 1.56 mg/kg/injection, schedule: Q01DX Z (ip), vehicle: water 100 % of control | dose: 3.12 mg/kg/injection, schedule: Q01DX Z (ip), vehicle: water 94 % of control | [1] 111 % of control and 100 % of control | [2] 110 % of control | dose: 6.25 mg/kg/injection, schedule: Q01DX Z (ip), vehicle: water 101 % of control | [3] 110 % of control and 100 % of control | [4] 115 % of control | dose: 12.5 mg/kg/injection, schedule: Q01DX Z (ip), vehicle: water 107 % of control | [5] 111 % of control and 100 % of control | [6] 102 % of control | dose: 40.0 mg/kg/injection, schedule: Q01DX010 (ip), vehicle: saline 111 % of control and 95 % of control | [7] 119 % of control and 97 % of control | [8] 104 % of control

COc1cc2c(c(OC)c1OC)-c1ccc(OC)c(=O)cc1[C@@H](NC(C)=O)CC2
inactive: dose: 0.08 mg/kg/injection, schedule: Q01DX Z (ip), vehicle: saline 112 % of control | dose: 0.16 mg/kg/injection, schedule: Q01DX Z (ip), vehicle: saline 114 % of control
active: dose: 0.6 mg/kg/injection, schedule: Q01DX Z (ip), vehicle: saline 151 % of control | dose: 0.63 mg/kg/injection, schedule: Q01DX Z (ip), vehicle: saline 177 % of control

O=CN(O)CC(=O)O
inactive: [9] 99 % of control | [10] 109 % of control | [11] 110 % of control | [12] 101 % of control

Nc1nc2n[nH]nc2c(=O)[nH]1
active: dose: 50.0 mg/kg/injection, schedule: Q01DX Z (ip), vehicle: other 175 % of control | dose: 100.0 mg/kg/injection, schedule: Q01DX Z (ip), vehicle: other 183 % of control

S=P(N1CCOCC1)(N1CC1)N1CC1
inactive: dose: 2.5 mg/kg/injection, schedule: Q01DX010 (ip), vehicle: saline 116 % of control and 100 % of control | [1] 105 % of control and 100 % of control | [2] 93 % of control | [3] 110 % of control and 122 % of control | [5] 105 % of control

C[C@H](N)C(=O)N[C@@H]1[C@H]2C(=C(O)C[C@@H](O)[C@@H]2O)C(=O)O[C@@H]1C
active: dose: 187.5 mg/kg/injection, schedule: Q01DX Z (ip), vehicle: saline 150 % of control | dose: 250.0 mg/kg/injection, schedule: Q01DX Z (ip), vehicle: saline 161 % of control | dose: 375.0 mg/kg/injection, schedule: Q01DX Z (ip), vehicle: saline 175 % of control | dose: 500.0 mg/kg/injection, schedule: Q01DX Z (ip), vehicle: saline 153 % of control
inactive: dose: 93.8 mg/kg/injection, schedule: Q01DX Z (ip), vehicle: saline 124 % of control | dose: 1000.0 mg/kg/injection, schedule: Q01DX Z (ip), vehicle: saline 119 % of control

N#[N+]c1cnc([O-])[nH]c1=O
inactive: dose: 1.25 mg/kg/injection, schedule: Q01DX010 (ip), vehicle: saline 115 % of control
active: [1] 160 % of control | [3] 160 % of control and 166 % of control

C[n+]1c2ccccc2nc2c(N)cc(N)cc21
inactive: dose: 1.6 mg/kg/injection, schedule: Q01DX Z (ip), vehicle: carboxymethylcellulose (CMC) 100 % of control | [4] 110 % of control | [6] 101 % of control

c1ccc(CCSc2ncnc3nc[nH]c23)cc1
inactive: [13] 120 % of control | [14] 120 % of control

CCCCNc1ncnc2c1cnn2C
inactive: dose: 16.0 mg/kg/injection, schedule: Q01DX Z (ip), vehicle: carboxymethylcellulose (CMC) 101 % of control | dose: 31.0 mg/kg/injection, schedule: Q01DX Z (ip), vehicle: carboxymethylcellulose (CMC) 117 % of control | dose: 31.25 mg/kg/injection, schedule: Q01DX010 (ip), vehicle: saline 95 % of control and 100 % of control | [13] 95 % of control and 100 % of control | [9] 113 % of control | [14] 90 % of control and 105 % of control

Nc1nc(=S)c2[nH]cnc2[nH]1
active: dose: 0.25 mg/kg/injection, schedule: Q01DX Z (ip), vehicle: carboxymethylcellulose (CMC) 169 % of control | dose: 1.25 mg/kg/injection, schedule: Q01DX010 (ip), vehicle: other 150 % of control | dose: 250.0 micrograms/kg/injection, schedule: Q01DX Z (ip), vehicle: carboxymethylcellulose (CMC) 155 % of control
inactive: dose: 1.0 mg/kg/injection, schedule: Q01DX Z (ip), vehicle: carboxymethylcellulose (CMC) 91 % of control | dose: 2.5 mg/kg/injection, schedule: Q01DX010 (ip), vehicle: other 110 % of control and 113 % of control | dose: 5.0 mg/kg/injection, schedule: Q01DX010 (ip), vehicle: other 110 % of control | dose: 31.2 micrograms/kg/injection, schedule: Q01DX Z (ip), vehicle: carboxymethylcellulose (CMC) 100 % of control | dose: 62.5 micrograms/kg/injection, schedule: Q01DX Z (ip), vehicle: carboxymethylcellulose (CMC) 103 % of control

CCCCn1cnc2c(=S)nc[nH]c21
inactive: [4] 105 % of control | dose: 16.0 mg/kg/injection, schedule: Q01DX010 (ip), vehicle: saline 115 % of control | [6] 98 % of control | [7] 114 % of control | [8] 98 % of control | dose: 128.0 mg/kg/injection, schedule: Q01DX010 (ip), vehicle: saline 95 % of control

O=c1[nH]c(=O)n(C2CC(O)C(CO)O2)cc1I (stereo not drawn)
inactive: [9] 103 % of control | [10] 108 % of control | [11] 118 % of control and 92 % of control | [12] 114 % of control

C[C@]12CCC(=O)C=C1CC[C@@H]1[C@@H]2CC[C@@]2(C)[C@H]1CC[C@]2(C)O
inactive: [15] 101 % of control | [16] 101 % of control | [17] 106 % of control and 108 % of control | [18] 91 % of control and 101 % of control | [19] 100 % of control

CN(C)c1ccc(Nc2c3ccccc3nc3ccccc23)cc1
inactive: [2] 101 % of control | [4] 88 % of control | [6] 90 % of control | dose: 36.0 mg/kg/injection, schedule: Q01DX010 (ip), vehicle: saline 104 % of control | [7] 95 % of control | [8] 103 % of control

CC[C@@H](c1ccc(O)cc1)[C@@H](CC)c1ccc(O)cc1
inactive: [15] 101 % of control | [16] 104 % of control | [17] 108 % of control and 118 % of control and 105 % of control | [18] 108 % of control and 112 % of control and 103 % of control | [19] 102 % of control | dose: 2000.0 mg/kg/injection, schedule: Q01DX Z (sc), vehicle: steriod suspending solution 100 % of control

C[C@]12CCC(=O)C=C1CC[C@@H]1[C@@H]2C(=O)C[C@@]2(C)[C@H]1CC[C@]2(O)C(=O)CO
inactive: dose: 6.25 mg/kg/injection, schedule: Q01DX Z (sc), vehicle: steriod suspending solution 103 % of control | dose: 12.5 mg/kg/injection, schedule: Q01DX Z (sc), vehicle: steriod suspending solution 102 % of control | dose: 25.0 mg/kg/injection, schedule: Q01DX Z (sc), vehicle: steriod suspending solution 123 % of control and 102 % of control | dose: 50.0 mg/kg/injection, schedule: Q01DX Z (sc), vehicle: steriod suspending solution 111 % of control | dose: 100.0 mg/kg/injection, schedule: Q01DX Z (sc), vehicle: steriod suspending solution 116 % of control

O=C(Nc1ccc(NC2=NCCN2)cc1)c1ccc(C(=O)Nc2ccc(NC3=NCCN3)cc2)cc1
inactive: dose: 2.0 mg/kg/injection, schedule: Q01DX Z (ip), vehicle: saline 96 % of control | dose: 32.0 mg/kg/injection, schedule: Q01DX Z (ip), vehicle: saline 96 % of control
active: dose: 2.0 mg/kg/injection, schedule: Q01DX010 (ip), vehicle: saline 161 % of control | dose: 4.0 mg/kg/injection, schedule: Q01DX010 (ip), vehicle: saline 300 % of control and 333 % of control | dose: 8.0 mg/kg/injection, schedule: Q01DX010 (ip), vehicle: saline 300 % of control and 333 % of control | dose: 8.0 mg/kg/injection, schedule: Q01DX Z (ip), vehicle: saline 153 % of control and 171 % of control | dose: 16.0 mg/kg/injection, schedule: Q01DX Z (ip), vehicle: saline 190 % of control
